IC50 and EC50 data for four compounds are collected here from ChEMBL document CHEMBL1150539, “A novel non nucleoside compound with high in vitro anti-HIV-1 activity. Absolute stereochemistry determination” (Bioorg Med Chem Lett, 1995).

“And” between values parts separate entries of the source, which are not always exact repeats. Identical values can stand only once.

As usually defined, the IC50 is the concentration at which inhibition is half-maximal. As usually defined, the EC50 is the concentration needed to bring the measured effect to its halfway point. Read a high EC50 as a need for much substance.

What all share (assay type): functional, cell-based, Homo sapiens
The test system of assay [1] is CEM-SS. The assay can be described thus: Compound was evaluated for inhibitory activity against cell growth.
Assay [2] has as its system CEM-SS. The assay can be described thus: Effective concentration required for 50% inhibition of viral replication by syncytium-forming assay carried out in CEM-SS cells.
The subject of assay [3] is CEM-SS. The assay can be described thus: Effective concentration required for 50% inhibition of viral replication by XTT cytoprotection assay carried out in CEM-SS cells. In general terms: Tetrazolium dyes change colour on reduction, which living cells bring about.

As for `CC1(C)CCC[C@]2(C)[C@@H](c3ccoc3)C(=O)[C@@H]3O[C@]312`, in the assay with CEM-SS [1] (cem-ss), the IC50 was 48.3 µM and 154 µM. For the same compound, the concentration for a half-maximal effect (EC50) stood at 15.4 µM in the assay with CEM-SS [2] (Homo sapiens, CEM-SS) and 42.1 µM in the assay with CEM-SS [3] (Homo sapiens, CEM-SS).

Regarding `CC1(C)CCC[C@@]2(C)[C@H](c3ccoc3)C(=O)[C@H]3O[C@@]312`, the IC50 in the assay on CEM-SS [1] (cem-ss) was 42.1 µM and 135 µM. For the same compound, the EC50 with CEM-SS [2] (cem-ss) is 0.6 µM; in the assay with CEM-SS [3] (cem-ss) it was 0.8 µM.

As to `CC1(C)CCC[C@@]2(C)[C@H](c3ccoc3)C(=O)[C@H]3O[C@@]312` (racemic), the IC50 in the assay on CEM-SS [1] (cem-ss) was 45.7 µM and 53.8 µM. For the same compound, the EC50 in the assay with CEM-SS [2] (cem-ss) amounted to 1.7 µM; in the assay with CEM-SS [3] (Homo sapiens, CEM-SS), 1.3 µM.

The compound `Cc1cn([C@H]2C[C@H](N=[N+]=[N-])[C@@H](CO)O2)c(=O)[nH]c1=O` [ZIDOVUDINE] yielded an IC50 with CEM-SS [1] (Homo sapiens, CEM-SS) of over 1890 µM. Moreover, the EC50 stood at 0.02 µM with CEM-SS [2] (Homo sapiens, CEM-SS) and 0.3 µM with CEM-SS [3] (Homo sapiens, CEM-SS).
